# Source: patent publication US5527773A, “Use of synthetic peptides to disrupt the cytoskeleton” (United States of America, priority 1993, dated 1996)
# Columns and labels:
# [1] = tested on: preformed keratin IFs; experiment: Disassembly of preformed keratin IFs by synthetic peptides (light scattering, electron microscopy); assay type: biochemical, human
# Protocol: In vitro filament assembly assays (1-1.5 mg/ml) were performed by dialysis for 2 hours each into decreasing concentrations of urea (6, 4, 2, 1 and 0M) containing 5 mM Tris-HCl, pH 7.6, 1 mM EDTA, 1 mM dithiothreitol. […]. Light scattering was measured at 310 nm in a Beckman DU65 spectrophotometer. Synthetic peptides (1-30 μl of a 0.5-2 mg/ml solution) were added to 1 ml samples of keratin filaments, incubated at 37° C., and filament assembly was measured by light scattering. […] Samples of these reactions were also collected for visualization by electron microscopy and stopped by negative staining with freshly-prepared 0.7% uranyl acetate.
# Peptides corresponding to the H1, beginning of 1A, and full-length 1A regions (SEQ ID NO: 1-3) of the human keratin 1 chain were individually mixed with preformed keratin IFs in vitro at a 1:1 molar ratio.
# [2] = tested on: keratin and vimentin/desmin IF networks in PtK2, BHK21 and mouse 3T3 fibroblasts; experiment: Microinjection of the 1A peptide into cells, indirect immunofluorescence and confocal microscopy; assay type: cell-based, kangaroo rat, baby hamster
# Protocol: The synthetic peptide corresponding to the keratin 1 chain 1A region (SEQ ID NO: 2) was microinjected into PtK2, BHK21 and mouse 3T3 fibroblasts according to the procedure of Vikstrom et al. (Proc. Natl. Acad. Sci. U.S.A., (1989) 86: 549-553; Methods Enzymol., (1991) 176: 506-525). BHK-21 cells contain type III filaments composed of vimentin and desmin, while 3T3 cells contain only vimentin. PtK2 cells contain mainly keratin. Briefly, peptides in 20 mM Tris-HCl. pH 8.5, 0.17M NaCl, 3 mM KCl were clarified by centrifugation for 30 min at 100,000×g immediately prior to microinjection. Protein concentrations in samples were determined by the method of Bradford (Anal. Biochem., 72: 248-254 (1976)). Micropipettes (W-P instruments) were prepared on a micropipette puller (Industrial Science Associates). Microinjections were monitored with a Leitz Diavert phase-contrast microscope fitted with a Leitz micromanipulator according to standard techniques (Graessmann and Graessmann, (1976) Proc. Natl. Acad. Sci. U.S.A., 73: 366-370; Kreis and Birchmeier, (1982) Int. Rev. Cytol., 75: 209-227).
# (§1) Microinjected cells were prepared for indirect immunofluorescence and confocal microscopy as described (Yang et al., (1985) J. Cell Biol., 100: 620-631). IF disassembly was assessed by immunofluorescence using antibodies against IFs. […] At 1 mg/ml peptide, cells rounded up completely within 30 min, respreading and regaining their shape after a few hours. […] The rounded-up cells contained spots of fluorescence indicating a rather complete disruption of IF structure. Recovery occurred within 3-4 hours indicating a need to maintain a constant supply of peptide to maintain the disassembled state of the IF network. The 1A peptide was soluble at 5-10 mg/ml, although higher concentrations may also be obtainable.
# [3] = Solubility of the peptide; assay type: physicochemical
# Protocol: as §1
substance,measurement,setting,value
1A*: the first 18 amino acids of SEQ ID NO: 2 (1A peptide) (REQIKSLNNQFASFIDKV),reversibility of disassembly,[1]; 1:1 molar ratio,reversible upon removal of the peptide
same,time to disassembly of preformed IFs down to single coiled-coil molecules,"[1]; 1:1 molar ratio peptide to preformed keratin IFs, light scattering and electron microscopy",≤ 30 min
same,IF structure by immunofluorescence during rounding,[2]; 1 mg/ml peptide,disorganized arrays of IFs
same,time to complete rounding up of cells,[2]; 1 mg/ml peptide,≤ 30 min
same,alteration of IF networks,[2]; 2-5 mg/ml peptide,very significant alterations in both the keratin and vimentin/desmin IF networks
same,time to recovery,[2]; 2-5 mg/ml peptide,3 to 4 h
same,overall cell shape,"[2]; about 0.5 mg/ml peptide microinjected, after 15-20 min",altered slightly due to the partial rounding up
same,overall IF structure by immunofluorescence,"[2]; about 0.5 mg/ml peptide, 30 min post-injection",no significant changes in overall IF structure
same,solubility,[3],5000 to 10000 µg/mL
